Test results: paper PMC3350427, “In vitro antiproliferative/cytotoxic activity on cancer cell lines of a cardanol and a cardol enriched from Thai Apis mellifera propolis” (BMC Complementary and Alternative Medicine, 2012)
Converted amounts (≈) assume the structure as drawn. “And” between values parts separate entries of the source, which are not always exact repeats. Identical values can stand only once. Like-named read-outs stand apart in the source and are kept apart here.

Assays:
[1] = tested on: human colorectal cancer cell line (CRC); parameters: method as in PMID 15996024; settings: 72 h treatment, cited from earlier work
[2] = tested on: BT474 cells (duet carcinoma); assay: MTT antiproliferative/cytotoxic assay, BT474; format: cell-based, human; settings: for IC50: Homo sapiens, BT-474, BT474, 72 h exposure, MTT, read-out: IC50, in vitro antiproliferative/cytotoxic activity
Excerpt: (§1) The five selected cancer cell lines used in this research were derived from human duet carcinoma (BT474, ATCC No. HTB 20), undifferentiated lung (Chaco I, National Cancer Institute), liver hepatoblastoma (Hep-G2, ATCC No. HB8065), gastric carcinoma (KATO-III, ATCC No. HTB 103) and human colon adenocarcinoma (SW620, ATCC No. CCL 227) cancers. In addition, the non-transformed human foreskin fibroblast cell line (Hs27, ATCC No. CRL 1634) was used as a comparative control. All cell lines were obtained from the Institute of Biotechnology and Genetic Engineering, Chulalongkorn University. The five cancer cell lines were cultured in RPMI 1640 medium containing 5% (v/v) fetal calf serum (FCS), while the Hs27 cell line was cultured in Basal Iscove medium containing 5% (v/v) FCS, at 37°C with 5% (v/v) CO2 [28].
(§2) The MTT assay was performed as reported by Santos et al. and Hernandez et al.. […] The supernatant was then removed, the cells permeabilized and the formazan crystals dissolved by aspiration in 150 μl of DMSO and 25 μl of 0.1 M glycine prior to measuring the absorbance at 540 nm by a microplate reader. […] By assuming an equal mitochondrial metabolic activity per living cell, the absorbance is then related to the relative number of viable cells and so is reduced, relative to the control, by any antiproliferation and/or cytotoxic activity of the test compound.
The absorbance at 540 nm of the test compound treated cancer cells and the solvent only control was used to calculate the relative number of viable cells, setting that for the control as 100%. The relative number of viable cells, as a % of the control, was then calculated as follows: […]
(§3) where (Abs of sample) and (Abs of control) are defined as the absorbance at 540 nm of the treated cells and the control cells, respectively.
The IC50 values were graphically obtained by plotting the absorbance obtained against the corresponding different concentrations of the test compound used, and are reported as the mean ± 1 standard error (SE). Data were statistically analyzed using the Kruskal-Wallis One Way Analysis of Variance. […]

[3] = tested on: five cancer cell lines and the control Hs27 cell line; assay: MTT assay, summary over the five cancer cell lines and Hs27; format: cell-based; settings: Homo sapiens, 72 h exposure, read-out: IC50 values, range across the five cancer cell lines and the control Hs27 cell line
Excerpt: as §1, with “The five cancer cell lines were cultured in RPMI 1640 medium containing 5% (v/v) fetal calf serum (FCS), while the Hs27 cell line was cultured in Basal Iscove medium containing 5% (v/v) FCS, at 37°C with 5% (v/v) CO2 [28].” left out
as §2
(§4) The absorbance at 540 nm of the test compound treated cancer cells and the solvent only control was used to calculate the relative number of viable cells, setting that for the control as 100%. […]

SW620 cells [4] = assay: DNA fragmentation (agarose-TBE gel), SW620; format: cell-based, human; settings: SW620, 72 h at IC50, agarose-TBE gel
Procedure: (§5) The morphology of the SW620 or Hs27 cells treated with each test compound was compared to those treated with only the DMSO solvent as the control. Cells were released by standard trypsin and aspiration, centrifugally washed at 2,000 × g at 15-25°C for 5 min and finally the cell pellet was resuspended in 200 μl of PBS. To this 20 μl of proteinase K (> 600 mAU/ml) was added and total DNA was extracted using a QIAMP mini kit (Qiagen, cat. no. 51304), as per the manufacturer's instructions. […] After electrophoresis, the gel was stained with 10 μg/ml of ethidium bromide (EtBr) for 10 min, destained in distilled water for 20 min and the DNA visualized by ultraviolet transillumination.

[5] = MTT antiproliferative/cytotoxic assay, non-transformed Hs27; format: cell-based; settings: human, Hs27 non-transformed foreskin fibroblast cells, read-out: IC50, in vitro antiproliferative/cytotoxic activity
Excerpt: as §1, with “The five cancer cell lines were cultured in RPMI 1640 medium containing 5% (v/v) fetal calf serum (FCS), while the Hs27 cell line was cultured in Basal Iscove medium containing 5% (v/v) FCS, at 37°C with 5% (v/v) CO2 [28].” left out
as §2, §4

[6] = tested on: SW620 cells (colon adenocarcinoma); assay: MTT antiproliferative/cytotoxic assay, SW620; format: cell-based, human; settings: for IC50 / IC50, in vitro antiproliferative/cytotoxic activity: SW620, 72 h exposure, MTT; for IC50: read-out: IC50, in vitro antiproliferative/cytotoxic activity
Excerpt: as §1
The MTT assay was performed as reported by Santos et al. and Hernandez et al.. For each of the five cancer cell lines, 5 × 10^3 cells in 200 μl of RPMI 1640 medium containing 5% (v/v) FCS were transferred per well of a 96 well tissue culture plate, and incubated at 37°C in 5% (v/v) CO2 for 24 h prior to the addition of 2 μl/well of the test extract in dimethylsulfoxide (DMSO) at various final concentrations. The addition of 2 μl/well of DMSO alone was used as the control. Cells were then incubated as above for 72 h before 10 μl of 5 mg/ml MTT was added and incubated for another 4 h. The supernatant was then removed, the cells permeabilized and the formazan crystals dissolved by aspiration in 150 μl of DMSO and 25 μl of 0.1 M glycine prior to measuring the absorbance at 540 nm by a microplate reader. Three replications of each trial were performed. By assuming an equal mitochondrial metabolic activity per living cell, the absorbance is then related to the relative number of viable cells and so is reduced, relative to the control, by any antiproliferation and/or cytotoxic activity of the test compound.
The absorbance at 540 nm of the test compound treated cancer cells and the solvent only control was used to calculate the relative number of viable cells, setting that for the control as 100%. The relative number of viable cells, as a % of the control, was then calculated as follows:
Therelative(% )numberofviablecells = (Absofsample)×100/(Absofcontrol)
as §3
The IC50 values were graphically obtained by plotting the absorbance obtained against the corresponding different concentrations of the test compound used, and are reported as the mean ± 1 standard error (SE). Data were statistically analyzed using the Kruskal-Wallis One Way Analysis of Variance. Significance was accepted at the P < 0.05 level.

Hs27 cells [7] = assay: Cell morphology in culture, Hs27; format: cell-based, human; settings: Hs27, up to 96 h, same doses as for SW620
Procedure: as §5

[8] = tested on: Chaco cells (undifferentiated lung cancer); assay: MTT antiproliferative/cytotoxic assay, Chaco; format: cell-based; settings: Homo sapiens, 72 h exposure, read-out: IC50, in vitro antiproliferative/cytotoxic activity
Excerpt: as §1, with “The five cancer cell lines were cultured in RPMI 1640 medium containing 5% (v/v) fetal calf serum (FCS), while the Hs27 cell line was cultured in Basal Iscove medium containing 5% (v/v) FCS, at 37°C with 5% (v/v) CO2 [28].” left out
as §2, §4

[9] = tested on: Hep-G2 cells (liver hepatoblastoma); assay: MTT antiproliferative/cytotoxic assay, Hep-G2; format: cell-based; settings: Homo sapiens, HepG2, Hep-G2, 72 h exposure, read-out: IC50, in vitro antiproliferative/cytotoxic activity
Excerpt: as §1, with “The five cancer cell lines were cultured in RPMI 1640 medium containing 5% (v/v) fetal calf serum (FCS), while the Hs27 cell line was cultured in Basal Iscove medium containing 5% (v/v) FCS, at 37°C with 5% (v/v) CO2 [28].” left out
as §2, §4

Hs27 cells [10] = assay: DNA fragmentation (agarose-TBE gel), Hs27; format: cell-based, human; settings: Hs27, 72 h
Procedure: as §5

SW620 cells [11] = assay: Cell morphology in culture, SW620; format: cell-based, human; settings: at IC50 ([…] / 3.0 μg/ml)
Procedure: as §5

[12] = tested on: five human cancer cell lines (BT474, Chaco, Hep-G2, KATO-III, SW620); assay: MTT assay, summary over the five cancer cell lines; format: cell-based; settings: 72 h exposure, read-out: IC50 values, range across the five cancer cell lines
Excerpt: as §1, with “The five cancer cell lines were cultured in RPMI 1640 medium containing 5% (v/v) fetal calf serum (FCS), while the Hs27 cell line was cultured in Basal Iscove medium containing 5% (v/v) FCS, at 37°C with 5% (v/v) CO2 [28].” left out
as §2, §4

[13] = tested on: KATO-III cells (gastric carcinoma); assay: MTT antiproliferative/cytotoxic assay, KATO-III; format: cell-based; settings: Homo sapiens, 72 h exposure, read-out: IC50, in vitro antiproliferative/cytotoxic activity
Excerpt: as §1, with “The five cancer cell lines were cultured in RPMI 1640 medium containing 5% (v/v) fetal calf serum (FCS), while the Hs27 cell line was cultured in Basal Iscove medium containing 5% (v/v) FCS, at 37°C with 5% (v/v) CO2 [28].” left out
as §2, §4

B16-F10 melanoma cells = tested on: B16-F10 melanoma cells; parameters: method as in PMID 20623613; settings: cited from earlier work
HeLa tumor cells = tested on: HeLa tumor cells; parameters: method as in PMID 19497755; settings: cited from earlier work
[14] = read-out: IC50, antiproliferative activity
[15] = mean ± 1 SE, ND in Table 4 = no IC50 obtained, no significant activity in tested concentration range

Structure (SMILES): O=C(/C=C/c1ccc(O)c(O)c1)OCCc1ccccc1 [CAPE, caffeic acid phenethyl ester]
- IC50 [1, 14]: 22.7 µM
- IC50, antiproliferative activity [1]: 6.47 µg/mL (≈ 22.8 µM)
- fold higher IC50 of CAPE than compound 2 (cardol) on BT474 ([2]; in terms of molarity, CAPE on MDA-231/MCF-7): ~1.5 fold

Structure (SMILES): CCCCCCCCCCCCCCCc1cc(O)cc(O)c1 [Compound 2]
- IC50 [3]: 3.13 µg/mL to 5.97 µg/mL and 6.82 µM to 13 µM
- evidence of fragmentation of the DNA (SW620 cells [4]): neither as an apoptotic ladder nor a general degradation smear
- IC50 at 72 h ([5]; Hs27, 72 h exposure): 1.3 ± 0.33 µM
- IC50 at 72 h ([5]; Hs27 non-transformed control, 72 h exposure, mean ± 1 SE): 5.97 ± 0.15 µg/mL
- IC50 ([6]; Homo sapiens, SW-620, 72 h, mean ± 1 SE, ND in Table 4 = no IC50 obtained, no significant activity in tested concentration range): 3 µg/mL
- IC50 ([6]; Homo sapiens, SW-620, 72 h): 6.54 µM
- IC50, in vitro antiproliferative/cytotoxic activity [6, 15]: < 3.125 µg/mL
- IC50, in vitro antiproliferative/cytotoxic activity ([6]; mean ± 1 SE, ND in Table 4 = no IC50 obtained, no significant activity in tested concentration range, listed as compound 2): < 3.13 µg/mL
- IC50 ([6]; listed as compound 2): < 6.8 µM
- IC50 [6]: < 6.81 µM
- fold lower IC50 on SW620 than IC50 of CAPE on CRC ([6]; in terms of molarity): over 3.3 fold
- cell morphology (Hs27 cells [7]): no morphological changes were observed
- IC50 [8, 15]: 5.78 ± 0.07 µg/mL
- IC50 [8]: 12.6 ± 0.15 µM
- IC50 [9, 15]: 5.97 ± 0.15 µg/mL
- IC50 [9]: 1.3 ± 0.33 µM
- evidence of fragmentation of the DNA (Hs27 cells [10]): neither as an apoptotic ladder nor a general degradation smear
- cell morphology (SW620 cells [11]; SW620, 24 h): No significant change in the cell morphology
- cell morphology (SW620 cells [11]; SW620, 48 h): vacuolation could be seen inside the cells
- cell morphology (SW620 cells [11]; SW620, 72 h): apparent DNA condensation within the nucleus was visible
- cell morphology (SW620 cells [11]; SW620, 96 h): significantly higher levels of cells with DNA condensation within their nucleus
- IC50 [12]: 3.13 µg/mL to 6 µg/mL and 6.82 µM to 13.1 µM
- IC50 [13, 15]: 4.03 ± 0.13 µg/mL
- IC50 [13]: 8.78 ± 0.28 µM
- IC50 [2, 15]: 4.41 ± 0.15 µg/mL
- IC50 [2]: 9.61 ± 0.33 µM

Structure (SMILES): CCCCCCCCCCCCCCCc1cc(O)cc(O)c1 [cardol (C15:0)]
- IC50, cytotoxicity (B16-F10 melanoma cells): 8.352 µg/mL (≈ 26.1 µM)
- complete lethality concentration (B16-F10 melanoma cells): 40 μM and 13.92 μg/ml
- IC50 (B16-F10 melanoma cells; read-out: IC50, cytotoxicity): 24 µM

Structure (SMILES): CC(C)=CC[C@H]1C[C@@]2(CC=C(C)C)C(=O)[C@](C(=O)c3ccccc3)(C(=O)C3=C2O[C@H](C(C)(C)O)C3)C1(C)C [hyperibone A]
- IC50, antiproliferative activity (HeLa tumor cells): 0.091 µg/mL (≈ 0.175 µM)
- IC50 (HeLa tumor cells; [14]): 0.176 µM
